This is an account of results in patent publication US10945995B2, “Compositions and methods for channelopathy disorders-targeting fluid movement across membranes” (DEHA, LLC, priority 2017, dated 2021).

Test [1] deals with T1, AQP-11 (Homo sapiens, UniProt Q8NBQ7).
T1 construct: expressed in transfected cells
T1 sequence (Q8NBQ7 1-271): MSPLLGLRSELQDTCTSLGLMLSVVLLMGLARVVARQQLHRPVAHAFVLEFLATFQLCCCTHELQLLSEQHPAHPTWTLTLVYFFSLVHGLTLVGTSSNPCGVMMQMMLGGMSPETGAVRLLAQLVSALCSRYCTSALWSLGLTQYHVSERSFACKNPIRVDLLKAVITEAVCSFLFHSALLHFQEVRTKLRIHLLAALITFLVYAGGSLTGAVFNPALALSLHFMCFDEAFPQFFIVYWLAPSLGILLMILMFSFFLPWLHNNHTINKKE
In words: Kinetic screening assay, cells overexpressing AQP-11. The class given is cell-based.

The target in test [2] is T2, AQP-2 (Homo sapiens, UniProt P41181).
T2 construct: expressed in transfected cells
T2 sequence (P41181 1-271): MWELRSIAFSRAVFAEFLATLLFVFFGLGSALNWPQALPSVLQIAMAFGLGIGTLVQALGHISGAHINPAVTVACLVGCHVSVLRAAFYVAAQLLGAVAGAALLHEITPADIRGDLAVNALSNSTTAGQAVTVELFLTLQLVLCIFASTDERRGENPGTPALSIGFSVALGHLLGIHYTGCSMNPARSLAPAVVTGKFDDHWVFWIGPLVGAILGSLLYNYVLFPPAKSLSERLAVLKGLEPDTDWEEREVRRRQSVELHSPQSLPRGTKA
The test can be described thus: Kinetic screening assay, cells overexpressing AQP-2. The class given is cell-based. From the text: Effects of candidate AQP-4 inhibitors on cell swelling in vitro. Kinetic screening assay: In order to assess the effects of the resulting 50 compounds selected from in silico screening efforts on cell swelling, a calcein-fluorescence assay that measures plasma membrane water permeability was used. Alvarez-Leefmans et al. established a technique to estimate changes in cell volume as a function of changes in concentration using a calcein-AM, a non-fluorescent and membrane-permeant dye.^53 After entering the cell, calcein-AM is converted to calcein by removal of the acetoxymethyl group (AM) by intracellular esterases. […] The fluorescence signal is calibrated by brief exposures of the calcein-loaded cells to, for example, 15% hypotonic and 15% hypertonic solutions and the average signal intensity from the cell is detected. […] The test compounds were then added (4-9 μM) and the fluorescence was measured using a Biotek plate reader (excitation 490 nm and emission 515 nm). Relative fluorescence intensity (RfU) was calculated as the fluorescence intensity of each well divided by the mean fluorescence intensity of cells treated with DMSO (control). […]
AQP-2 DHA-35. Using the kinetic screening assay described hereinabove, cells overexpressing AQP-2 were screened with test compounds of interest and their fluorescence signal were evaluated. […]

Test [3] relates to AQP-4. The settings on record: pre-treatment, mouse model of stroke; cited from earlier work.
Test [4] has as its system AQP-4. The settings on record: rat model of epilepsy; cited from earlier work.
The subject of test [5] is rat traumatic brain injury model. The settings on record: cited from earlier work.
The target in test [6] is T3, AQP-6 (Homo sapiens, UniProt Q13520).
T3 construct: expressed in transfected cells
T3 sequence (Q13520 1-282): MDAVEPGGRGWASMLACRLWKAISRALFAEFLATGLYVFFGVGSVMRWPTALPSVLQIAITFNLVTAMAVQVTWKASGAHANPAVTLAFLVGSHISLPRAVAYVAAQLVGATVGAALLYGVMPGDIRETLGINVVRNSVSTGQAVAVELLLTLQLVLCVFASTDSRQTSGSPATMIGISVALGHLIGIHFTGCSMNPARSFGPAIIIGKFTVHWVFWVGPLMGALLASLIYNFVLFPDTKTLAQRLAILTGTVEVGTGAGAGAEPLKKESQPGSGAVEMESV
In words: Kinetic screening assay, cells overexpressing AQP-6. The test is classed as cell-based.

Turning to `Cc1onc(-c2ccccc2)c1C(=O)NCc1nnc(SCc2ccccc2Cl)n1CC(C)C` [DHA-37], the “AQP-11 activity, fluorescence signal” value in test [1] was “modulators”.

`C=CCn1nc(C(=O)N2CCCCCC2)c2c1CCC(NCCCN1CCCC1=O)C2` (stereo not shown) [DHA-6]: the “AQP-11 activity, fluorescence signal” value in test [1] is “modulators”.

In the case of `CSc1ccc(C(=O)NC(c2ccc3c(c2)CCO3)[C@H]2C[C@@H](O)C2)cc1` (stereo partly shown) [DHA-35], the “AQP-2 activity, fluorescence signal” value in test [2] is reported as “inhibitor”.

On to `O=C(Nc1nncs1)c1cccnc1` [TGN-020, 2-(nicotinamide)-1,3,4-thiadiazole], for which the “edema and infarct size” value in test [3] was “reduce edema and infarct size”.

Take `CC(=O)Nc1nnc(S(N)(=O)=O)s1` [Acetazolamide, acetazolamide]: the “AQP-4 inhibition in vivo” value in test [4] is recorded as “inhibit AQP-4”. The edema result in test [5] is on record as “reduce edema”.

For the compound `COCC(C)n1c(CCCC(=O)N2CCC3(CC2)CNC(=O)C3)nc2cccnc21` (stereo not shown) [DHA-36], in test [6], the “AQP-6 activity, fluorescence signal” value is listed as “inhibitor”.
